This is an account of results in patent US9443060B2, “Method and system to provide personalized pharmaceutical compositions and dosages” (Volant Holdings GMBH, priority 2009, dated 2016).

“Also recorded” adds a separate entry of the source. Where two headings read alike, the source gives them in different places.

Test [1] relates to hepatic gluconeogenesis (GNG). The conditions noted are these: metformin 2550 mg daily, cited from earlier work.
For a further test, the system named is metabolic syndrome. In words: FS index / neural net model of cardiovascular risk in metabolic syndrome patient populations. The format is in vivo, human. On the procedure: The FS index of MS comprises the following parameters: Fasting Blood Glucose, Fasting Insulin, HBA1c, BMI, AST, Triglycerides, Glucose Supply-Demand (S/D) index, and in certain cases, Proinsulin. Each parameter was mathematically arranged to increase as MS worsened, and weighted approximately equally in the prediction of MS progression and risk for CV events. […] FS index values were calculated from serial laboratory and clinical data over timeframes ranging between 2 and 10 years.
Neural Net Models and Data Display Methods. […] Unless otherwise stated, standard deviations (z-score) vs. time are presented in the individual and mean population graphics.
For purposes of analysis, clinical and laboratory parameters were converted into modified z-scores as follows: • A mean normal value (described as “mean” in the following) was selected based on review of literature and various published laboratory compendia. The Standard Deviation (SD) of each parameter was set to one half of the normal range. The modified z-score is calculated as follows: z=(Patient value−“mean”)/SD • On the graphs, the z-score is reported as the number of SD.
The FS index considered the following: Fasting Blood Glucose, Fasting Insulin, HBA1c, BMI, AST, Triglycerides, Glucose Supply-Demand (S/D) index, and in some cases Proinsulin. […] Each of these parameters was mathematically arranged to increase as Metabolic Syndrome worsened, and weighted approximately equally in the prediction of Metabolic Syndrome progression and risk for CV events.
The FS index was then applied to well-studied patient populations using a neural net model.
[formula] Where FBG is Fasting Blood Glucose in mg/dl and normal value is 100 mg/dl TG is Triglycerides in mg/dl normal value is <150 HBA1c is hemoglobin A1c in %, normal value is <6% BMI is body mass index as kg/m2 where a normal value is 20 and obese begins above 25 AST is Aspartate Transferase also called SGOT in IU/liter and a normal value is 5-50 FB insulin is fasting Blood insulin concentration in nmol/liter, a normal value is 4.0

A further test relates to insulin resistance (IR). In words: Glucose supply and insulin demand model: effect on insulin resistance. Format: in vivo, human. On the procedure:
(§1) Therapeutic targets of the glucose supply (CE, 1+2; HGU, 3; GNG, 4; IR, 5) and insulin demand (PGU, 6; PIE, 7) model are presented in FIG. 1. To identify quantitative differences between antidiabetic agents on CE, HGU, GNG, IR, PGU, and PIE, multidatabase searches (Cochrane Central Register of Controlled Trials and Cochrane Register of Systematic Reviews, Embase, OVID Healthstar, OVID Journals, and PubMed) were conducted cross-referencing title and keywords for all selected antidiabetic therapies and their respective targets.
(§2) Alpha-glucosidase, biguanide, and thiazolidinedione (TZD) studies with long-term, pre-post design at maximal therapeutic doses were identified to simulate chronic administration. To maintain consistency with cardiovascular trials and accommodate known influences of hyperglycemia and hyperinsulinemia on the respective targets,^13-16 studies including patients with HbA1c in the range of 6-8% and body mass index (BMI)≧30 kg/m^2 were preferentially selected. In the event multiple studies were available to identify the effect of an agent on a therapeutic target, the mean percent change was used. Conversely, if there was evidence that an agent would elicit a response on a given target but no mathematical representation of the difference was provided, conservative estimates consistent with the scale of other agents and the degree of glucose regulation were instituted to best represent the expected effect. Individual agents were then characterized for the 24 h percent change from baseline for CE, HGU, GNG, IR, PGU, and PIE. Carbohydrate exposure was determined as the combined effect of caloric intake and intestinal carbohydrate absorption. Hepatic glucose uptake was defined as the reported value obtained immediately following oral glucose loading. Because GNG is known to be enhanced in the fasting state and persistent throughout the prandial phase,^17,18 effect was determined during the fasting state and considered equivalent throughout the prandial phase. For studies evaluating fasting glucose and insulin concentrations, an index of IR was determined by homeostasis model assessment of insulin resistance (HOM-AIR) using the following formula: Insulin (mU/liter)×Glucose (mmol)/22.5.^19 To account for known differences in secretory and uptake dynamics during the fasting and prandial phases, studies identifying the impact of therapies during the fasting state (or simulated hyperinsulinemic euglycemic clamp) and prandial phase (or oral glucose load insulin clamp) were specifically identified for changes in PGU (glucose infusion rate) and PIE (insulin concentrations) according to Equation (1): […]
(§3) For sulfonylurea and insulin-based therapies, insulin concentration time profiles were obtained and superimposed on the baseline 24 h insulin concentration time profile of T2D patients (FIG. 2) to calculate the increase in PIE (trapezoidal rule).^20 Calculated increases in incremental and cumulative insulin exposure were correlated to known insulin dose-response effects on HGU, GNG, and PGU (FIG. 3),^18,21 according to the equation y=mx+b. Twenty-four-hour increases in HGU, PGU, and PIE and decreases in GNG were compared to baseline values and percent change calculated.
(§4) With alpha-glucosidase, biguanide, TZD, secretagogue, and insulin therapies characterized for their respective impacts on CE, HGU, GNG, IR, PIE, and PGU, identification of their effect on the glucose supply (decrease in CE, increase in HGU, decrease in GNG, decrease in IR) and insulin demand (increase in PIE, increase in PGU) dynamic was assessed according to Equation (2), which provides the SD ratio according to the invention: […]

Test [2] relates to carbohydrate exposure (CE). Kind of test: Glucose supply and insulin demand model: effect on carbohydrate exposure. Format: in vivo, human. The arrangement: scale not given here. The settings on record: Metformin 2000 mg, Glyburide 10 mg, Pioglitazone 45 mg, Insulin Glargine 0.5 U/kg daily; pH encapsulated glucose 3.0 grams/day. The protocol:
as §1, §2, §3, §4

Test [3] concerns intestinal carbohydrate absorption. The settings on record: Jackson; metformin, 75 g oral glucose load with labeled glucose, 3 h; cited from earlier work.
The test system of test [4] is peripheral insulin exposure (PIE). The settings on record: cited from earlier work.
Test [5] has as its system intestinal glucose transfer. The settings on record: metformin 50 mg/kg, mice; cited from earlier work.

`CN(C)C(=N)N=C(N)N` [Metformin]: the “rate of hepatic GNG, ^2H2O method” value in test [1] (Hundal, 3 months, before 0.42±0.04) is reported as 0.28±0.03 mmol/m^−2/min^−1. In test [1] (Hundal, 3 months, before 0.59±0.03), the “rate of hepatic GNG, nuclear magnetic resonance method” value was 0.18±0.03 mmol/m^−2/min^−1. The “reduction of rate of hepatic GNG, ^2H2O method” value in test [1] (Hundal, 3 months) is on record as 33%. In addition, the “reduction of rate of hepatic GNG, nuclear magnetic resonance method” value in test [1] (Hundal, 3 months) is recorded as 36%. For the same molecule, the “reduction of rate of plasma lactate to plasma glucose conversion (GNG)” value in test [1] (Stumvoll, 16 weeks, fasted T2D) is reported as 37%. Moreover, the “rate of plasma lactate to plasma glucose conversion (GNG)” value in test [1] (Stumvoll, 16 weeks, before 7.3±0.7) is on record as 4.6±0.6 μmol/kg^−1/min^−1. In addition, the “FS index response to treatment” value with metabolic syndrome (normal 20-50, 61 T2D on metformin, 100 RYGB, 18 Brake, 33 exenatide, 12 sitagliptin patients) is reported as “Their FS index rises; also recorded: flat or slowly rising”. In addition, in the test with metabolic syndrome (same patient populations as FS index), the “other parameters of metabolic syndrome (BMI/weight, HBSD, lipids, NAFLD, blood pressure, insulin)” value is recorded as “their HBSD rises, they gain weight”. Also, the “Score IR” value in the test with insulin resistance (IR) (Metformin 2000 mg, Glyburide 10 mg, Pioglitazone 45 mg, Insulin Glargine 0.5 U/kg daily, pH encapsulated glucose 3.0 grams/day) stood at 0.38. In addition, the IR reduction with insulin resistance (IR) (adjustment factor = decrease in insulin resistance at the therapeutic dose of Table 1, T2D) was 0.38. In test [2], the “Score CE” value came to 0.15. The absorption of glucose entry in test [3] is given as “slightly delayed, but ultimately unaltered”. In addition, the “mean fasting and postprandial plasma insulin concentrations” value in test [4] (Inzucchi, metformin 2000 mg daily, 12 weeks) is “slightly, but not significantly reduced”. The FPI in test [4] (Iozzo, metformin, before 63±12) was 43.0 ± 5.0 pmol/L; in test [4] (Sharma, metformin 2000 mg daily, 16 weeks, before 76.0±54.5), 69.0 ± 45.0 pmol/L; in test [4] (Stumvoll, metformin, before 12±5), 10 μU/ml; in test [4] (Tiikkainen, metformin 2000 mg daily, 16 weeks, before 13), 9 mU/liter. Besides, the “reduction of FPI” value is approximately 30% in test [4] (Iozzo, metformin) and 17% in test [4] (Stumvoll, metformin). Besides, the “reduction in FPI” value in test [4] (Sharma, metformin 2000 mg daily, 16 weeks) is recorded as approximately 10%; in test [4] (Tiikkainen, metformin 2000 mg daily, 16 weeks), approximately 30%. For the same molecule, in test [4] (metformin), the “reduction of FPI concentrations (range over studies)” value is given as 10-30%. Also, the “reduction of net glucose transfer in the serosal fluid” value in test [5] was 12%.
